According to US8129402B2 (priority 2002, dated 2012):

Target: PrP^sc in ScN2a-22L cells (Mus musculus, UniProt P04925)
Assay type: cell-based
Settings: ScN2a-22L cells, NIH Image J quantification

Sequence of PrP^sc in ScN2a-22L cells (P04925 23-230 limits assumed): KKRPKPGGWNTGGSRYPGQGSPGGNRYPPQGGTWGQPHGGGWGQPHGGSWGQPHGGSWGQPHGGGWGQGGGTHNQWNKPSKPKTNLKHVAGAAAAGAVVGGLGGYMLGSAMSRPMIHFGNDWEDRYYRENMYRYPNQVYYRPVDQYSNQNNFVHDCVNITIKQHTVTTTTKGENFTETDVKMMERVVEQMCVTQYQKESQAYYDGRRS

CN(C)CCCN1c2ccccc2Sc2ccc(Cl)cc21 [chlorpromazine]
inhibition of the accumulation of PrPsc (resistant to proteinase K): 96%
